Data taken from ChEMBL document CHEMBL3046040, “Synthesis, cytostatic and anti-viral activity evaluation of the novel acyclic nucleoside analogues containing a sterically constrained (Z)-4-amino-2-butenyl moiety” (Med Chem Res, 2011).
Activity calls are given as the source filed them. The calls are words filed in the database; no cut-off is given here.

Key:
[1] = test system: Human respirovirus 3; experiment: Antiviral activity against Human parainfluenza virus 3 infected Vero cells assessed as inhibition of virus-induced cytopathic effect; format: functional, organism-based
[2] = test system: Respiratory syncytial virus; experiment: Antiviral activity against Respiratory syncytial virus infected HeLa cells assessed as inhibition of virus-induced cytopathic effect; format: functional, organism-based
[3] = test system: Human alphaherpesvirus 1; experiment: Antiviral activity against Human herpesvirus 1 strain KOS infected in HEL cells assessed as inhibition of virus-induced cytopathic effect; format: functional, organism-based
[4] = test system: Coxsackievirus B4; experiment: Antiviral activity against Human coxsackievirus B4 infected Vero cells assessed as inhibition of virus-induced cytopathic effect; format: functional, organism-based
[5] = test system: Influenza A virus; experiment: Antiviral activity against Unidentified Influenza A virus ([…]) infected MDCK cells assessed as inhibition of virus-induced cytopathic effect; format: functional, organism-based; settings: Influenza A virus (H1N1)
[6] = test system: Sindbis virus; experiment: Antiviral activity against Sindbis virus infected Vero cells assessed as inhibition of virus-induced cytopathic effect; format: functional, organism-based
[7] = test system: Punta Toro virus; experiment: Antiviral activity against Punta Toro virus infected Vero cells assessed as inhibition of virus-induced cytopathic effect; format: functional, organism-based
[8] = test system: Human alphaherpesvirus 2; experiment: Antiviral activity against Human herpesvirus 2 strain G infected HEL cells assessed as inhibition of virus-induced cytopathic effect; format: functional, organism-based
[9] = test system: Vesicular stomatitis virus; experiment: Antiviral activity against Vesicular stomatitis virus infected HeLa cells assessed as inhibition of virus-induced cytopathic effect; format: functional, organism-based
[10] = test system: Influenza A virus H3N2; experiment: Antiviral activity against Influenza A virus H3N2 infected MDCK cells assessed as inhibition of virus-induced cytopathic effect; format: functional, organism-based
[11] = test system: Reovirus sp.; experiment: Antiviral activity against Mammalian orthoreovirus 1 infected Vero cells assessed as inhibition of virus-induced cytopathic effect; format: functional, organism-based
[12] = test system: Coxsackievirus B4; experiment: Antiviral activity against Human coxsackievirus B4 infected HeLa cells assessed as inhibition of virus-induced cytopathic effect; format: functional, organism-based
[13] = test system: Influenza B virus; experiment: Antiviral activity against Influenza B virus infected MDCK cells assessed as inhibition of virus-induced cytopathic effect; format: functional, organism-based
[14] = test system: SW-620; experiment: Antiproliferative activity against Homo sapiens (human) SW620 cells by MTT assay; format: functional, cell-based
[15] = test system: L1210; experiment: Cytostatic activity against Mus musculus (mouse) L1210 cells after 48 hr by Coulter counting analysis; format: functional, cell-based
[16] = test system: MIA PaCa-2; experiment: Antiproliferative activity against Homo sapiens (human) MIAPaCa2 cells by MTT assay; format: functional, cell-based
[17] = test system: HepG2; experiment: Antiproliferative activity against Homo sapiens (human) HepG2 cells by MTT assay; format: functional, cell-based
[18] = test system: Human immunodeficiency virus 1; experiment: Antiviral activity against Human immunodeficiency virus 1 IIIB infected CEM cells assessed as inhibition of virus-induced giant cell formation after 4 days by microscopic analysis; format: functional, organism-based; settings: CCRF-CEM, 96 h
[19] = test system: WI-38; experiment: Antiproliferative activity against Homo sapiens (human) WI38 cells by MTT assay; format: cell-based
[20] = test system: MCF7; experiment: Antiproliferative activity against Homo sapiens (human) MCF7 cells by MTT assay; format: functional, cell-based
[21] = test system: CCRF-CEM; experiment: Cytostatic activity against Homo sapiens (human) CEM cells after 72 hr by Coulter counting analysis; format: functional, cell-based
[22] = test system: HeLa; experiment: Antiproliferative activity against Homo sapiens (human) HeLa cells by MTT assay; format: functional, cell-based
[23] = test system: Human immunodeficiency virus 2; experiment: Antiviral activity against Human immunodeficiency virus type 2 (ISOLATE ROD) infected CEM cells assessed as inhibition of virus-induced giant cell formation after 4 days by microscopic analysis; format: functional, organism-based; settings: Human immunodeficiency virus 2, ISOLATE ROD, CCRF-CEM, 96 h
[24] = test system: MOLT-4; experiment: Cytostatic activity against Homo sapiens (human) Molt4/C8 cells after 72 hr by Coulter counting analysis; format: functional, cell-based; settings: MOLT-4, 72 h
[25] = target: Human immunodeficiency virus type 1 reverse transcriptase (Human immunodeficiency virus 1) (UniProt Q72547); experiment: Inhibition of Human immunodeficiency virus 1 recombinant reverse transcriptase at 500 uM

Structure (SMILES): NC/C=C\Cn1ccc(=O)[nH]c1=O
- Activity [1]: inactive
- Activity [2]: inactive
- Activity [3]: inactive
- Activity [4]: inactive
- Activity [5]: inactive
- Activity [6]: inactive
- Activity [7]: inactive
- Activity [8]: inactive
- Activity [9]: inactive
- Activity [10]: inactive
- Activity [11]: inactive
- Activity [12]: inactive
- Activity [13]: inactive

Structure (SMILES): NC/C=C\Cn1cnc2c(N)nc(N)nc21 [listing 1 of 3 here]
- IC50 ([14]; sw-620): 98.8 µM
- IC50 ([15]; l1210): 350 µM

Structure (SMILES): NCCCCn1cnc2c(N)nc(N)nc21
- Activity [1]: inactive
- Activity [2]: inactive
- Activity [3]: inactive
- Activity [4]: inactive
- Activity [5]: inactive
- Activity [6]: inactive
- Activity [7]: inactive
- Activity [8]: inactive
- Activity [9]: inactive
- Activity [10]: inactive
- Activity [11]: inactive
- Activity [12]: inactive
- Activity [13]: inactive

Structure (SMILES): NC/C=C\Cn1cnc2c(Cl)nc(N)nc21
- Activity [1]: inactive
- Activity [2]: inactive
- Activity [3]: inactive
- Activity [4]: inactive
- Activity [5]: inactive
- Activity [6]: inactive
- Activity [7]: inactive
- Activity [8]: inactive
- IC50 [16]: > 100 µM
- IC50 ([14]; Homo sapiens, SW-620): > 100 µM
- IC50 [17]: > 100 µM
- EC50 [18]: ≥ 100 µM
- IC50 [19]: > 100 µM
- IC50 [20]: > 100 µM
- Activity [9]: inactive
- IC50 ([15]; Mus musculus, L1210, 48 h): > 500 µM
- IC50 [21]: > 500 µM
- Activity [10]: inactive
- Activity [22]: Dose-dependent effect
- IC50 [22]: 54 µM
- Activity [11]: inactive
- EC50 [23]: ≥ 100 µM
- IC50 [24]: > 500 µM
- Activity [12]: inactive
- Activity [13]: inactive

Structure (SMILES): Cc1cn(C/C=C\CN)c(=O)nc1N
- Activity [1]: inactive
- Activity [2]: inactive
- Activity [3]: inactive
- Activity [4]: inactive
- Activity [5]: inactive
- Activity [6]: inactive
- Activity [7]: inactive
- Activity [8]: inactive
- IC50 [16]: > 100 µM
- IC50 ([14]; Homo sapiens, SW-620): 69.2 µM
- IC50 [17]: > 100 µM
- EC50 [18]: 36 µM
- IC50 [19]: 63 µM
- IC50 [20]: 67.5 µM
- Activity [9]: inactive
- IC50 ([15]; Mus musculus, L1210, 48 h): 45 µM
- inhibition [25]: inactive
- IC50 [21]: 46 µM
- Activity [10]: inactive
- IC50 [22]: > 100 µM
- Activity [11]: inactive
- EC50 [23]: 38 µM
- IC50 [24]: 42 µM
- Activity [12]: inactive
- Activity [13]: inactive

Structure (SMILES): NC/C=C\Cn1cnc2c(N)nc(N)nc21 [listing 2 of 3 here]
- IC50 [16]: > 100 µM
- IC50 ([14]; Homo sapiens, SW-620): > 100 µM
- IC50 [17]: > 100 µM
- IC50 [19]: > 100 µM
- IC50 [20]: > 100 µM
- IC50 ([15]; Mus musculus, L1210, 48 h): > 500 µM
- IC50 [21]: > 500 µM
- IC50 [22]: > 100 µM
- IC50 [24]: > 500 µM

Structure (SMILES): NC/C=C\Cn1cnc2c(N)nc(N)nc21 [listing 3 of 3 here]
- Activity [1]: inactive
- Activity [2]: inactive
- Activity [3]: inactive
- Activity [4]: inactive
- Activity [5]: inactive
- Activity [6]: inactive
- Activity [7]: inactive
- Activity [8]: inactive
- Activity [9]: inactive
- Activity [10]: inactive
- Activity [11]: inactive
- Activity [12]: inactive
- Activity [13]: inactive

Structure (SMILES): NC/C=C\Cn1cnc2c(=O)[nH]cnc21
- Activity [1]: inactive
- Activity [2]: inactive
- Activity [3]: inactive
- Activity [4]: inactive
- Activity [5]: inactive
- Activity [6]: inactive
- Activity [7]: inactive
- Activity [8]: inactive
- IC50 [16]: > 100 µM
- IC50 ([14]; Homo sapiens, SW-620): > 100 µM
- IC50 [17]: > 100 µM
- EC50 [18]: ≥ 100 µM
- IC50 [19]: > 100 µM
- IC50 [20]: > 100 µM
- Activity [9]: inactive
- IC50 ([15]; Mus musculus, L1210, 48 h): 114 µM
- IC50 [21]: > 500 µM
- Activity [10]: inactive
- IC50 [22]: 69.1 µM
- Activity [11]: inactive
- EC50 [23]: ≥ 100 µM
- IC50 [24]: > 500 µM
- Activity [12]: inactive
- Activity [13]: inactive

Structure (SMILES): NC/C=C\Cn1cnc2c(=O)[nH]c(N)nc21
- Activity [1]: inactive
- Activity [2]: inactive
- Activity [3]: inactive
- Activity [4]: inactive
- Activity [5]: inactive
- Activity [6]: inactive
- Activity [7]: inactive
- Activity [8]: inactive
- EC50 [18]: 10 µM
- Activity [9]: inactive
- Activity [10]: inactive
- Activity [11]: inactive
- EC50 [23]: 10 µM
- Activity [12]: inactive
- Activity [13]: inactive

Structure (SMILES): NCCCCn1cnc2c(-n3cccc3)ncnc21
- Activity [1]: inactive
- Activity [2]: inactive
- Activity [3]: inactive
- Activity [4]: inactive
- Activity [5]: inactive
- Activity [6]: inactive
- Activity [7]: inactive
- Activity [8]: inactive
- IC50 [16]: > 100 µM
- IC50 ([14]; Homo sapiens, SW-620): 40.5 µM
- IC50 [17]: 74.2 µM
- IC50 [19]: > 100 µM
- IC50 [20]: > 100 µM
- Activity [9]: inactive
- IC50 ([15]; Mus musculus, L1210, 48 h): 91 µM
- IC50 [21]: 115 µM
- Activity [10]: inactive
- Activity [22]: Dose-dependent effect
- IC50 [22]: 10.9 µM
- Activity [11]: inactive
- IC50 [24]: 140 µM
- Activity [12]: inactive
- Activity [13]: inactive

Structure (SMILES): Cc1cn(C/C=C\CN)c(=O)[nH]c1=O
- Activity [1]: inactive
- Activity [2]: inactive
- Activity [3]: inactive
- Activity [4]: inactive
- Activity [5]: inactive
- Activity [6]: inactive
- Activity [7]: inactive
- Activity [8]: inactive
- IC50 [16]: 93.3 µM
- IC50 ([14]; Homo sapiens, SW-620): 54.4 µM
- IC50 [17]: > 100 µM
- EC50 [18]: 29 µM
- IC50 [19]: 54.2 µM
- IC50 [20]: 49.2 µM
- Activity [9]: inactive
- IC50 ([15]; Mus musculus, L1210, 48 h): 43 µM
- inhibition [25]: inactive
- IC50 [21]: 51 µM
- Activity [10]: inactive
- IC50 [22]: 61.6 µM
- Activity [11]: inactive
- EC50 [23]: 41 µM
- IC50 [24]: 44 µM
- Activity [12]: inactive
- Activity [13]: inactive

Structure (SMILES): NC/C=C\Cn1ccc(N)nc1=O
- Activity [1]: inactive
- Activity [2]: inactive
- Activity [3]: inactive
- Activity [4]: inactive
- Activity [5]: inactive
- Activity [6]: inactive
- Activity [7]: inactive
- Activity [8]: inactive
- IC50 [16]: > 100 µM
- IC50 ([14]; Homo sapiens, SW-620): 53.2 µM
- IC50 [17]: > 100 µM
- EC50 [18]: 96 µM
- IC50 [19]: 85.2 µM
- IC50 [20]: > 100 µM
- Activity [9]: inactive
- IC50 ([15]; Mus musculus, L1210, 48 h): > 500 µM
- inhibition [25]: inactive
- IC50 [21]: > 500 µM
- Activity [10]: inactive
- IC50 [22]: > 100 µM
- Activity [11]: inactive
- EC50 [23]: 78 µM
- IC50 [24]: > 500 µM
- Activity [12]: inactive
- Activity [13]: inactive

Structure (SMILES): NC/C=C\Cn1cnc2c(N)ncnc21
- Activity [1]: inactive
- Activity [2]: inactive
- Activity [3]: inactive
- Activity [4]: inactive
- Activity [5]: inactive
- Activity [6]: inactive
- Activity [7]: inactive
- Activity [8]: inactive
- IC50 [16]: > 100 µM
- IC50 ([14]; Homo sapiens, SW-620): 77.1 µM
- IC50 [17]: > 100 µM
- IC50 [19]: 69.1 µM
- IC50 [20]: > 100 µM
- Activity [9]: inactive
- IC50 ([15]; Mus musculus, L1210, 48 h): 276 µM
- IC50 [21]: 340 µM
- Activity [10]: inactive
- IC50 [22]: > 100 µM
- Activity [11]: inactive
- IC50 [24]: 248 µM
- Activity [12]: inactive
- Activity [13]: inactive
